From patent US7691876B2, “Heterobicyclic amide compounds” (Hoffmann-La Roche Inc., priority 2006, dated 2010)

Target: T1, cholesteryl ester transfer protein (CETP) (Homo sapiens, UniProt P11597)
T1 construct: the source of CETP was human lipoprotein-deprived serum (LPDS); from tissue; host or cells: human lipoprotein-deprived serum (LPDS)
T1 sequence (P11597 18-493): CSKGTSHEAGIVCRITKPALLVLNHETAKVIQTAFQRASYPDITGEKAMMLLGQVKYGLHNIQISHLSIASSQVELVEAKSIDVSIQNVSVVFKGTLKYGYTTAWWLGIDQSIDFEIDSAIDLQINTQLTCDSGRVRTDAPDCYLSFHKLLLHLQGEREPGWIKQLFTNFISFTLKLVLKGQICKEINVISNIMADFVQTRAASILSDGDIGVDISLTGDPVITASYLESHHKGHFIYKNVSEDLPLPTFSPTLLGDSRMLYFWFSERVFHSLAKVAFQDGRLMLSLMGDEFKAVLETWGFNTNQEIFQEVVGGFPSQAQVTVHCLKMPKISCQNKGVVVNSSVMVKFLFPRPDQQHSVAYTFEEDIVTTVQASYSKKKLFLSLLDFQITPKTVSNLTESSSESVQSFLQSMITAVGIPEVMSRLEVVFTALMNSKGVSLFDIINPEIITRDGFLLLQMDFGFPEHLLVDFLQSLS
Test: CETP activity SPA assay in the presence of plasma (human lipoprotein-deprived serum as source of CETP)
Assay type: biochemical
Settings: source of CETP was human lipoprotein-deprived serum (LPDS), transfer of radiolabeled cholesteryl ester from HDL donor to biotin-labeled LDL acceptor particles
Description: Activity of CETP inhibitors was determined using a buffer assay system. Partially purified CETP transferred radiolabeled cholesteryl ester from HDL donor particles to biotin-labeled LDL acceptor particles. The reaction was stopped by addition of streptavidin-coupled scintillation proximity assay (SPA) beads. These beads captured the biotinylated acceptor particles and transferred radioactivity was measured. The assay system was purchased and performed according to manufacturer's recommendations (Amersham Biosciences). Inhibitory activity of compounds was determined as percentage of positive control activity containing CETP together with donor and acceptor particles. Serial dilution of compounds was performed in order to determine the IC50 values.
Activity of the compounds was subsequently measured in the presence of plasma using the same assay as described above except that the source of CETP was human lipoprotein-deprived serum (LPDS). Inhibitory activity of compounds was determined as percentage of positive control activity containing all the assay components except compound. Serial dilution of compounds was performed in order to determine the IC50 values.

SMILES | IC50 [nM]
CC(C)(C)c1ccc(CN(CCc2cccc(C(F)(F)F)c2)C(=O)c2nc(Cl)cc3cc[nH]c23)cc1 [Compound 3.22, 5-chloro-1H-pyrrolo[2,3-c]pyridine-7-carboxylic acid (4-tert-butyl-benzyl)-[2-(3-trifluoromethyl-phenyl)-ethyl]-amide] | 175
CC(C)(C)c1ccc(CN(CCc2ccc(F)cc2)C(=O)c2ncc(F)c3cc[nH]c23)cc1 [Compound 3.15, 4-fluoro-1H-pyrrolo[2,3-c]pyridine-7-carboxylic acid (4-tert-butyl-benzyl)-[2-(4-fluoro-phenyl)-ethyl]-amide] | 437
Cc1cc2cc[nH]c2c(C(=O)N(CCc2ccc(Cl)c(Cl)c2)Cc2ccc(C(C)(C)C)cc2)n1 [Compound 3.14, 5-methyl-1H-pyrrolo[2,3-c]pyridine-7-carboxylic acid (4-tert-butyl-benzyl)-[2-(3,4-dichloro-phenyl)-ethyl]-amide] | 141
